From paper PMC9019904, “AD Informer Set: Chemical tools to facilitate Alzheimer's disease drug discovery” (Alzheimer's & Dementia : Translational Research & Clinical …, 2022)

How the values were obtained:
[1] = test system: BV2 (mouse microglia) cell line; test: pHrodo-myelin phagocytosis/cell viability high content imaging assay: phagocytosis signal; assay type: cell-based
Summary of the method: (§1)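 HCI read-out ~22 h post pHrodo-myelin; phagocytosis + viability simultaneously; 3 parameters extracted; intensity up = early apoptosis, down = later apoptosis.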

[2] = test system: HMC3 (human microglia) cell line; test: as above; assay type: cell-based
Summary of the method: as §1

[3] = test system: BV2 (mouse microglia) cell line; test: pHrodo-myelin phagocytosis/cell viability high content imaging assay: viability (cell count, nuclear area, nuclear intensity); settings: 48 hours treatment
Summary of the method: (§2)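 Immortalized microglia are treated with compound (10 μM, single concentration) for 48 h, the final 20 h alongside pHrodo-myelin. Data are the mean of duplicates, reported as % of untreated control.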

[4] = test system: HMC3 (human microglia) cell line; test: as above; settings: 48 hours treatment
Summary of the method: as §2

[5] = BV2 cells, 10 uM compound, 48 hours treatment, pHrodo-myelin final 20 hours
[6] = HMC3 cells, 10 uM compound, 48 hours treatment, pHrodo-myelin final 20 hours
[7] = BV2, compound 10 uM, pHrodo-myelin
[8] = HMC3, compound 10 uM, pHrodo-myelin

| SMILES | 4. Phagocytosis (% control) [1, 5] [% control] | 4. Phagocytosis (% control) [2, 6] [% control] | 1. Cell count (% control) ([3]; BV2 cells, 10 uM compound) | 2. Nuclear Area (% Control) ([3]; BV2 cells, 10 uM compound) | 3. Nuclear DNA Intensity (% control) ([3]; BV2 cells, 10 uM compound) | 1. Cell count (% control) ([4]; HMC3 cells, 10 uM compound) | 2. Nuclear Area (% Control) ([4]; HMC3 cells, 10 uM compound) | 3. Nuclear DNA Intensity (% control) ([4]; HMC3 cells, 10 uM compound) | 4. Phagocytosis (% control) [1, 7] [% control] | 4. Phagocytosis (% control) [2, 8] [% control] | 1. Cell count (% control) ([3]; BV2, compound 10 uM) | 2. Nuclear Area (% Control) ([3]; BV2, compound 10 uM) | 3. Nuclear DNA Intensity (% control) ([3]; BV2, compound 10 uM) | 1. Cell count (% control) ([4]; HMC3, compound 10 uM) | 2. Nuclear Area (% Control) ([4]; HMC3, compound 10 uM) | 3. Nuclear DNA Intensity (% control) ([4]; HMC3, compound 10 uM) |
| --- | --- | --- | --- | --- | --- | --- | --- | --- | --- | --- | --- | --- | --- | --- | --- | --- |
| CC(=O)N1CCC(NC(=O)NC23CC4CC(CC(C4)C2)C3)CC1 [UNC10302683A] | 155.4 | 72.2 | 126.3 | 103.6 | 107.4 | 168.7 | 103.9 | 92.0 |  |  |  |  |  |  |  |  |
| C=CC[N+]1(C2CC3C4CCC5CC(O)C(N6CCOCC6)CC5(C)C4CCC3(C)C2OC(C)=O)CCCC1.[Br-] (centres unmarked) [UNC10302696A] |  |  |  |  |  |  |  |  | 148.6 | 62.6 | 144.5 | 102.9 | 102.4 | 145.5 | 103.7 | 86.9 |
| CN(C)CC#Cc1ccc(OCCCc2sc(N3CCc4cccc(C(=O)Nc5nc6ccccc6s5)c4C3)nc2C(=O)O)c(F)c1 [UNC10302697A] |  |  |  |  |  |  |  |  | 206.2 | 54.1 | 84.3 | 106.7 | 111.2 | 92.7 | 89.5 | 121.7 |
| Nc1ncnc2c1nc(Br)n2[C@@H]1O[C@@H]2COP(=O)([O-])O[C@H]2[C@H]1O.[Na+] [UNC10302698A] |  |  |  |  |  |  |  |  | 164.5 | 80.6 | 97.0 | 105.8 | 98.8 | 137.9 | 97.3 | 96.1 |
| Oc1cc(CNC(=S)/C=C/c2cc(O)c(O)c(Br)c2)cc(O)c1O [UNC10302699A] |  |  |  |  |  |  |  |  | 235.2 | 92.5 | 17.7 | 116.2 | 76.1 | 53.7 | 113.5 | 119.4 |
| CSc1ccc2c(c1)c(CCN)c(C)n2Cc1ccc(Cl)cc1Cl.Cl [UNC10302700A] |  |  |  |  |  |  |  |  | 0.00395 | 0.0 | 22.6 | 113.6 | 33.9 | 10.1 | 49.3 | 146.5 |
| COc1ccc(CC[C@@H](OC(=O)[C@@H]2CCCCN2C(=O)[C@H](c2cc(OC)c(OC)c(OC)c2)C2CCCCC2)c2cccc(OCC(=O)O)c2)cc1OC [UNC10302701A] |  |  |  |  |  |  |  |  | 156.6 | 71.9 | 117.8 | 104.1 | 103.5 | 116.9 | 101.8 | 97.5 |
| CN(C)CCCOc1c(Br)cc(/C=C/C(=O)NCCCOc2c(Br)cc(CCN(C)C)cc2Br)cc1Br [UNC10302702A] |  |  |  |  |  |  |  |  | 0.0 | 0.00724 | 26.8 | 80.6 | 57.8 | 39.0 | 54.1 | 166.0 |
| Cc1cc(O)cc2c1[C@]1(C)CCC3C(C)(C)CCC[C@]3(C)[C@H]1C2 (some centres unmarked) [UNC10302703A] |  |  |  |  |  |  |  |  | 179.0 | 74.6 | 88.9 | 108.7 | 100.3 | 107.3 | 104.4 | 94.7 |
| C[C@H](NC(=O)c1sccc1OCc1ccc(Cl)cc1)c1ccccc1 [UNC10302704A] |  |  |  |  |  |  |  |  | 123.4 | 66.4 | 95.5 | 101.0 | 97.2 | 112.7 | 95.6 | 89.7 |
| CCOC(=O)c1cccc(CNc2ccc(N(C)C(=O)Nc3ccccc3)cc2)c1 [UNC10302705A] |  |  |  |  |  |  |  |  | 194.2 | 139.7 | 77.7 | 107.2 | 109.9 | 79.1 | 96.2 | 114.6 |
| CCOC(=O)N1CCC(Nc2c(NCCN3CCN(c4cccc(C(F)(F)F)c4)CC3)c(=O)c2=O)CC1 [UNC10302706A] |  |  |  |  |  |  |  |  | 143.2 | 75.0 | 117.8 | 102.0 | 95.9 | 111.8 | 102.2 | 96.9 |
| CCCCCCOc1cc2c(cc1N(C)c1ncc(C(=O)O)cn1)C(C)(C)CCC2(C)C [UNC10302707A] |  |  |  |  |  |  |  |  | 161.8 | 53.6 | 135.9 | 104.8 | 101.8 | 137.9 | 106.3 | 90.2 |
| COc1nc(OCc2cccc(-c3ccccc3)c2C)ccc1CNCCNC(C)=O.Cl [UNC10302832A] | 0.00132 | 0.4 | 21.6 | 92.8 | 35.4 | 35.9 | 69.0 | 171.8 |  |  |  |  |  |  |  |  |
| CCN(CC)Cc1ccc(C(=O)N(CCc2ccccc2OC)[C@@H]2CCNC2)cc1.Cl.Cl [UNC10302833A] | 210.8 | 38.5 | 70.3 | 106.1 | 102.7 | 76.9 | 96.9 | 107.9 |  |  |  |  |  |  |  |  |
| C[C@H](CCCC(C)(C)O)[C@H]1CC[C@H]2[C@@H]3CC=C4C[C@@H](O)CC[C@]4(C)[C@H]3CC[C@]12C [UNC10302834A] |  |  |  |  |  |  |  |  | 50.2 | 45.5 | 75.6 | 103.0 | 136.7 | 99.4 | 81.6 | 144.3 |
| NCCCC[C@H](N[C@@H](CCc1ccccc1)C(=O)O)C(=O)N1CCC[C@H]1C(=O)O.O.O [UNC10302835A] |  |  |  |  |  |  |  |  | 121.2 | 70.9 | 119.8 | 103.4 | 99.2 | 155.8 | 99.6 | 95.8 |
| CC1(C)CCC(CN2CCN(c3ccc(C(=O)NS(=O)(=O)c4ccc(NCC5CCOCC5)c([N+](=O)[O-])c4)c(Oc4cnc5[nH]ccc5c4)c3)CC2)=C(c2ccc(Cl)cc2)C1 [UNC10302836A] |  |  |  |  |  |  |  |  | 211.1 | 79.7 | 115.0 | 107.1 | 100.7 | 133.1 | 98.6 | 97.8 |
| CNC(=O)c1cccc(-c2ccc3c(N4CCOC[C@@H]4C)nc(N4CCOC[C@@H]4C)nc3n2)c1 [UNC10302837A] |  |  |  |  |  |  |  |  | 328.3 | 149.5 | 47.4 | 94.2 | 117.6 | 99.5 | 83.5 | 103.3 |
